{
  "source": "patent US20250206759A1",
  "about": "“FUSED RING COMPOUND, PHARMACEUTICAL COMPOSITION CONTAINING SAME, AND USE OF FUSED RING COMPOUND” (CHENGDU HYPERWAY PHARMACEUTICALS CO., LTD., priority 2022, published 2025)",
  "key": {"GP2d cells": {"system": "GP2d cells", "assay": "3D cell proliferation inhibition test (CellTiter-Glo), GP2d cells", "assay_type": "cell-based", "conditions": "7 days, read-out: GP2d cells 3D CTG IC50", "procedure": "(§1) The diluted compounds to be tested were added to 384-well low-adhesion cell culture plates by using a nanoliter pipetting system (LABCYTE, P-0200). Then, the cells were plated and incubated in a 37° C., […] incubator for 7 days. Afterward, CellTiter-Glo® […] reagent was added, and the luminescent values were read by an Envision multifunctional microplate reader (the luminescent signal is proportional to the amount of ATP in the system, and the ATP content directly represents the number of viable cells in the system). Finally, the IC50 values (half-maximal inhibitory concentration) of the compounds were obtained by the XLFIT software using the nonlinear fitting formula.\n(§2) a) The diluted compounds to be tested were added to 384-well low-adsorption cell culture plates by using a nanoliter pipetting system.\n(§3) b) Cells were seeded into the 384-well plates in a) and then centrifuged at 1000 rpm for 1 min at room temperature, with a final DMSO concentration of compound being 0.5%. The plates were then incubated in a 37° C., 5% CO2 constant temperature incubator for 7 days.\n(§4) c) CellTiter-Glo® 3D was added to the 384-well cell culture plates in b), shaken in the dark, and incubated at room temperature.\n(§5) d) The luminescence values were read by using an Envision multifunctional microplate reader.\n(§6) The IC50 (half-maximal inhibitory concentration) values of the compounds were obtained by using XLFIT software according to the following nonlinear fitting formula:\n(§7) [formula] • X: log value of compound concentration. • Y: inhibition rate (%)\n(§8) Inhibition rate (%)=100×(average value of negative control−compound)/(average value of negative control−average value of positive control)\n(§9) Positive control: Medium only."}, "ASPC-1 cells": {"system": "ASPC-1 cells", "assay": "3D cell proliferation inhibition test (CellTiter-Glo), ASPC-1 cells", "assay_type": "cell-based", "conditions": "7 days, read-out: ASPC-1 cells 3D CTG IC50", "procedure": "as §1, §2, §3, §4, §5, §6, §7, §8, §9"}, "[1]": {"system": "KRas G12D-mediated ERK phosphorylation", "assay": "Inhibition of KRas G12D-mediated ERK phosphorylation in AGS cells", "assay_type": "cell-based", "conditions": "read-out: AGS-pERK IC50", "procedure": "Day 1: AGS cells were seeded into 384-well cell culture plates and cultured overnight in a 37° C., 5% CO2 incubator.\nDay 2: The compounds were added to the plates using Echo550 and incubated for 3 h in a 37° C., 5% CO2 incubator. Then cells were fixed with paraformaldehyde, permeated with methanol, and blocked with the blocking solution. Finally, a mixed solution of primary antibodies (rabbit anti pERK, mouse anti GAPDH) was added, and the mixture was incubated at 4° C. overnight.\nDay 3: The mixed solution of primary antibodies was discarded, and a mixed solution of secondary antibodies (goat anti rabbit 800CW, goat anti mouse 680RD) was added. The mixture was incubated at room temperature in the dark. Finally, the cell culture plate was washed with PBST, and then inverted for 1 minute of centrifugation. The fluorescence signal values were read with Odyssey CLx.\nERK phosphorylation was calculated according to the following formula: […]\nX: log value of compound concentration.\nY: average value of relative expression of p-ERK between replicate wells."}, "[2]": {"assay": "Pharmacokinetics of compounds in rats (oral)", "assay_type": "in vivo, SD rats", "conditions": "for AUC / Cmax: male SD rats", "procedure": "Male SD rats were purchased from Shanghai SIPPR-Bk Lab Animal Co., Ltd. Each test compound was administered orally (3 rats per group) once to SD rats for pharmacokinetic study. The test compounds were prepared on the day of administration. The test compounds were suspended in 5% DMSO+95% saline, and then vortexed for 2 min and ultrasonicated for 5 min to prepare the administration system. The animals were fasted for 10-14 h before oral administration, and the feeding was resumed 4 h after administration. After oral administration by gavage, pharmacokinetic samples were collected from SD rats through the jugular vein. The collection time points were: before administration, 15 min, 30 min, 1 h, 2 h, 4 h, 6 h, 8 h and 24 h after administration. Three whole blood samples were collected at each time point, with a collection volume of about 0.2 mL, and anticoagulated with sodium heparin. After blood samples were collected, they were immediately placed on ice and centrifuged to separate plasma within 1 hour (centrifugation conditions: 6800 rpm, 6 min, 2-8° C.). The collected plasma was stored in a −80° C. refrigerator before analysis."}, "[3]": {"conditions": "male, SD, rat, plasma, po, 100 mg/kg, 100 mg/kg, read-out: AUC"}, "[4]": {"conditions": "male, SD, rat, plasma, po, 100 mg/kg, 100 mg/kg, read-out: Cmax"}},
  "note": "Like-named read-outs stand apart in the source and are kept apart here.",
  "data": [
    {"smiles": "Oc1cc(-c2ncc3c(N4CC5CCC(C4)N5)nc(OCC45CCCN4[C@@H](c4ccc(C(F)(F)F)c(F)c4)CC5)nc3c2F)c2c(F)c(F)ccc2c1", "note": "(mixture of isomers) [Example 225]", "values": [
      {"measurement": "IC50", "setting": "GP2d cells; 168 h", "value": 1.49, "unit": "nM"},
      {"measurement": "IC50", "setting": "ASPC-1 cells; Homo sapiens, ASPC1, 168 h", "value": 11.1, "unit": "nM"},
      {"measurement": "IC50", "setting": "[1]; Homo sapiens, AGS", "value": 1.5, "unit": "nM"},
      {"measurement": "AUC", "setting": "[2]; [3]", "value": 0.38, "unit": "µg·h/mL"},
      {"measurement": "Cmax", "setting": "[2]; [4]", "value": 0.054, "unit": "µg/mL"}
    ]},
    {"smiles": "Oc1cc(-c2ncc3c(N4CC5CCC(C4)N5)nc(OCC45CCCN4[C@@H](c4cc(F)c(F)c(F)c4)CC5)nc3c2F)c2c(F)c(F)ccc2c1", "note": "(single isomer, unassigned) [Example 223]", "values": [
      {"measurement": "IC50", "setting": "GP2d cells; 168 h", "value": 0.67, "unit": "nM"},
      {"measurement": "IC50", "setting": "ASPC-1 cells; Homo sapiens, ASPC1, 168 h", "value": 3.09, "unit": "nM"},
      {"measurement": "IC50", "setting": "[1]", "value": 0.74, "unit": "nM"},
      {"measurement": "AUC", "setting": "[2]; 100 mg/kg", "value": 0.404, "unit": "µg·h/mL"},
      {"measurement": "Cmax", "setting": "[2]; 100 mg/kg", "value": 0.26, "unit": "µg/mL"}
    ]},
    {"smiles": "Oc1cc(-c2ncc3c(N4C[C@H]5CC[C@@H](C4)N5)nc(OCC45CCCN4C(c4ccc6c(c4)OC(F)(F)O6)CC5)nc3c2F)c2c(F)c(F)ccc2c1", "note": "(stereo partly drawn) [Example 142, 4-(4-((1R,5S)-3,8-diazabicyclo[3.2.1]octan-3-yl)-2-((3-(2,2-difluorobenzo[d][1,3]dioxy-5-yl)tetrahydro-1H-pyrrolizin-7a(5H)-yl)methoxy)-8-fluoropyrido[4,3d]pyrimidin-7-yl)-5,6-difluoronaphthalen-2-ol]", "values": [
      {"measurement": "IC50", "setting": "GP2d cells", "value": 1.15, "unit": "nM"},
      {"measurement": "IC50", "setting": "ASPC-1 cells", "value": 13.9, "unit": "nM"},
      {"measurement": "IC50", "setting": "[1]", "value": 0.83, "unit": "nM"},
      {"measurement": "AUC", "setting": "[2]; 100 mg/kg", "value": 0.404, "unit": "µg·h/mL"},
      {"measurement": "Cmax", "setting": "[2]; 100 mg/kg", "value": 0.096, "unit": "µg/mL"}
    ]},
    {"smiles": "C#Cc1c(F)ccc2cc(O)cc(-c3ncc4c(N5CC6CCC(C5)N6)nc(OCC56CCCN5C(c5ccc7c(c5)C5CCC7O5)CC6)nc4c3F)c12", "note": "(stereo not shown) [Example 192]", "values": [
      {"measurement": "IC50", "setting": "GP2d cells; 168 h", "value": 3.51, "unit": "nM"},
      {"measurement": "IC50", "setting": "ASPC-1 cells; Homo sapiens, ASPC1, 168 h", "value": 12.2, "unit": "nM"},
      {"measurement": "IC50", "setting": "[1]; Homo sapiens, AGS", "value": 1.8, "unit": "nM"},
      {"measurement": "AUC", "setting": "[2]; [3]", "value": 0.284, "unit": "µg·h/mL"},
      {"measurement": "Cmax", "setting": "[2]; [4]", "value": 0.096, "unit": "µg/mL"}
    ]},
    {"smiles": "C#Cc1c(F)ccc2cc(O)cc(-c3ncc4c(N5CC6CCC(C5)N6)nc(OC[C@@]56CCCN5C[C@H](F)C6)nc4c3F)c12", "note": "[MRTX1133, reference compound]", "values": [
      {"measurement": "IC50", "setting": "GP2d cells", "value": 1.38, "unit": "nM"},
      {"measurement": "IC50", "setting": "ASPC-1 cells", "value": 10.9, "unit": "nM"},
      {"measurement": "IC50", "setting": "[1]", "value": 1.2, "unit": "nM"},
      {"measurement": "oral pharmacokinetics (Cmax and AUC)", "setting": "[2]; SD rats", "value": "extremely poor"},
      {"measurement": "AUC", "setting": "[2]; 10 mg/kg", "value": "No parameter"},
      {"measurement": "Cmax", "setting": "[2]; 10 mg/kg", "value": "0.001 to 0.002", "unit": "µg/mL"},
      {"measurement": "AUC", "setting": "[2]; 100 mg/kg", "value": 0.07, "unit": "µg·h/mL"},
      {"measurement": "Cmax", "setting": "[2]; 100 mg/kg", "value": 0.026, "unit": "µg/mL"}
    ]}
  ]
}
